No end group written: not given here.
Legend:
[1] = test system: HepG2-2.2.15 cells; test: Cytotoxicity in the HBV assay (dye uptake); assay type: cell-based; conditions: peptide 10 micrograms per ml
[2] = test system: Streptococcus pneumoniae; assay type: cell-based; conditions: 5 micrograms per ml
[3] = test system: A549 cells; test: Apoptosis prevention assay (C2 ceramide, Annexin-5); assay type: cell-based, human; conditions: 30 min pretreatment with peptide 10 micrograms per ml, then C2 ceramide
[4] = test system: A549 cells; test: Cell cycle assay (propidium iodide, FACS); assay type: cell-based, human; conditions: peptide 10 micrograms per ml, 24 hours
Source text: The cell cycle consists of four distinct phases: […]

[5] = Cytotoxicity in the HBV assay (dye uptake); assay type: cell-based; conditions: human, HepG2-2.2.15 cells, peptide 10 micrograms per ml, read-out: % Cell Viability
[6] = test system: HIV-1IIIB; test: HIV-1 antiviral assay (CPE reduction, MTS); assay type: cell-based; conditions: peptide 10 micrograms per ml, 6 days post-infection
[7] = in vitro; conditions: human, MRC-5 cells
[8] = test system: Human Peripheral Blood Mononuclear Cells (PBMC); test: T cell proliferation assay (PHA, 3H-thymidine); conditions: peptide 10 micrograms per ml, 3H-thymidine incorporation
[9] = test system: Pseudomonas aeruginosa; assay type: cell-based; conditions: 5 micrograms per ml
[10] = test system: RAW 264.7 cells; test: Phagocytosis assay (Fluorescein-labeled Escherichia coli, flow cytometry); assay type: cell-based, mouse; conditions: peptide 10 micrograms per ml, 30 min preincubation, 60 min ingestion
[11] = test system: spleen cells; test: Th1/Th2 cytokine profiling assay (Ovalbumin restimulation, CBA kit); assay type: cell-based, Balb/c mice; conditions: peptide 10 micrograms per ml, 72 hours
[12] = test system: Primary Human endothelial cells (HUVEC); test: Endothelial cell migration assay; assay type: cell-based; conditions: peptide 10 micrograms per ml, 22 hours
[13] = test system: MRSA; conditions: 5 micrograms per ml
[14] = in vitro; conditions: human, CEM-SS cells
[15] = test system: hepatitis B virus (HBV) ayw strain; test: HBV assay (secreted HBV DNA, TaqMan PCR); assay type: cell-based; conditions: HepG2-2.2.15; peptide 10 micrograms per ml; six days; HBV DNA in supernatant
[16] = test system: macrophages prepared from human PBMC; test: TNF alpha production assay (LPS-stimulated macrophages, ELISA); assay type: cell-based; conditions: peptide 10 micrograms per ml, 30 min preincubation, lipopolysaccharide 200 ng/ml overnight
Source text: Not stimulated macrophages served as negative background control.

[17] = test system: HCMV strain AD169; test: HCMV plaque reduction assay; conditions: MRC-5 cells; peptide 10 micrograms per ml; 7-10 days
[18] = test system: HUVEC; test: Endothelial tube formation assay; assay type: cell-based, human; conditions: peptide 10 micrograms per ml, 20 hours
Source text: Positive control was vehicle only.

[19] = test system: A549 cells; test: Apoptosis induction assay (Annexin-5); assay type: cell-based, human; conditions: peptide 10 micrograms per ml, 24 hours
Source text: Human A549 cells (carcinomic human alveolar basal epithelial cells) were utilized in the experiments employing the Annexin-5 apoptosis assay.

[20] = test system: Human Peripheral Blood Mononuclear Cells (PBMC); test: B cell proliferation assay (SAC plus Interleukin-2, 3H-thymidine); assay type: cell-based; conditions: peptide 10 micrograms per ml, 3H-thymidine incorporation
[21] = test system: CEM-SS cells; test: Cytotoxicity in the HIV-1 assay (cell viability, MTS); conditions: peptide 10 micrograms per ml
[22] = test system: MRC-5 cells; conditions: human, 6 days

With `Nc1ccn([C@@H]2CS[C@H](CO)O2)c(=O)n1` [3TC, Lamivudine, reference compound] the “% Cell viability” value [1] was 95.8%.

For “HPGSRIVLSLDVPIGLLQILLEQARARAAREQATTNARILARV-NH2 [Stresscopin-related peptide]”, the “% inhibition” value [2] was 0.0%, the “% prevention of ceramide induced apoptosis” value [3] was 0.0% and the “Cell cycle analysis G0/G1” value [4] was 56.9. The “Cell cycle analysis G2/M” value [4] was 9.7, the “Cell cycle analysis S” value [4] was 33.4 and the viability at 144 h, 10 micrograms per ml [5] was 100%. The “% CPE reduction in HIV-1 infected CEM-SS cells” value [6] was 0.0%, the viability at 144 h, 10 micrograms per ml [7] was 100% and the “% of PHA induced control” value [8] was 92.6%. The “% inhibition” value [9] was 0.0%, the “% of control phagocytosis” value [10] was 131.4% and the “IFNγ spleen cells; TH1 response (% of control)” value [11] was 105.6 % of control. The “IL-2 spleen cells (% of control)” value [11] was 66.8 % of control, the “IL-4 spleen cells; TH2 response (% of control)” value [11] was 68.9 % of control and the “IL-5 spleen cells; TH2 response (% of control)” value [11] was 67.0 % of control. The “TNF-a spleen cells; TH1 response (% of control)” value [11] was 125.6 % of control, the “% inhibition of migration” value [12] was 15% and the “% inhibition” value [13] was 0.0%. For the same compound, the viability at 10 micrograms per ml [14] was 100%, the “% inhibition of HBV replication in HEP G2 cells” value [15] was 0.0% and the “% of LPS induction” value [16] was 117.0%. For the same compound, the “% plaque reduction” value [17] was 0.0%, the “% inhibition of tube formation” value [18] was 35% and the “% of induction” value [19] was 1.2%. The “% of SAC/IL2 induced control” value [20] was 91.4%.

With `Cc1cn([C@H]2C[C@H](N=[N+]=[N-])[C@@H](CO)O2)c(=O)[nH]c1=O` [AZT, reference compound] the “% CPE reduction in HIV-1 infected CEM-SS cells” value [6] was 99% and the “% Cell viability” value [21] was 97%.

In the case of `Nc1nc(O)c2ncn(COC(CO)CO)c2n1` [Ganciclovir], the “% Cell viability” value [22] is reported as 100%.
